Reference: the supplement of paper PMC10307832

Key:
Test in all cases: relative viability (nuclei count vs DMSO), 5 days (fraction); higher = more cells survive
HCC-15 = test system: HCC-15
Summary of the method: (§1)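 Relative viability equals treated-well nuclei counts divided by vehicle-well nuclei counts. Counts came from 4× images of lung cancer cell lines grown in 1536-well plates for 5 days after pin-tool dosing on the day after seeding. Dosing used one drug alone or a fixed anchor-drug dose plus five library-drug doses (not always all listed) in √10 steps, and values are medians of duplicate plates.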

LOU-NH91 = test system: LOU-NH91
Summary of the method: as §1

NCI-H1755 = test system: NCI-H1755
Summary of the method: as §1

HCC-366 = test system: HCC-366
Summary of the method: as §1

NCI-H838 = test system: NCI-H838
Summary of the method: as §1

NCI-H460 = test system: NCI-H460
Summary of the method: as §1

CAL-12T = test system: CAL-12T
Summary of the method: as §1

NCI-H1355 = test system: NCI-H1355
Summary of the method: as §1

NCI-H441 = test system: NCI-H441
Summary of the method: as §1

NCI-H358 = test system: NCI-H358
Summary of the method: as §1

NCI-H1975 = test system: NCI-H1975
Summary of the method: as §1

BEN = test system: BEN
Summary of the method: as §1

Structure (SMILES): COc1cc(N2CCC(C(N)=O)CC2)ccc1Nc1nc(N)c(Cl)c(Nc2ccccc2S(=O)(=O)C(C)C)n1 [HG-5-88-01] + Cc1cc(Nc2cc(N3CCN(C)CC3)nc(Sc3ccc(NC(=O)C4CC4)cc3)n2)n[nH]1 [Tozasertib] (partner 0.1 µM)
- relative viability (HCC-15; first compound 0.04 µM): 0.383
- relative viability (HCC-15; first compound 0.1265 µM): 0.368
- relative viability (HCC-15; first compound 0.4 µM): 0.373
- relative viability (HCC-15; first compound 1.265 µM): 0.107
- relative viability (HCC-15; first compound 4 µM): 0.159
- relative viability (LOU-NH91; first compound 0.04 µM): 0.657
- relative viability (LOU-NH91; first compound 0.1265 µM): 0.614
- relative viability (LOU-NH91; first compound 0.4 µM): 0.513
- relative viability (LOU-NH91; first compound 1.265 µM): 0.376
- relative viability (LOU-NH91; first compound 4 µM): 0.366
- relative viability (NCI-H1755; first compound 0.04 µM): 0.602
- relative viability (NCI-H1755; first compound 0.1265 µM): 0.589
- relative viability (NCI-H1755; first compound 0.4 µM): 0.587
- relative viability (NCI-H1755; first compound 1.265 µM): 0.512
- relative viability (NCI-H1755; first compound 4 µM): 0.495
- relative viability (HCC-366; first compound 0.04 µM): 0.169
- relative viability (HCC-366; first compound 0.1265 µM): 0.0937
- relative viability (HCC-366; first compound 0.4 µM): 0.0774
- relative viability (HCC-366; first compound 1.265 µM): 0.0436
- relative viability (HCC-366; first compound 4 µM): 0.0402
- relative viability (NCI-H838; first compound 0.04 µM): 0.234
- relative viability (NCI-H838; first compound 0.1265 µM): 0.256
- relative viability (NCI-H838; first compound 0.4 µM): 0.185
- relative viability (NCI-H838; first compound 1.265 µM): 0.209
- relative viability (NCI-H838; first compound 4 µM): 0.21
- relative viability (NCI-H460; first compound 0.04 µM): 0.722
- relative viability (NCI-H460; first compound 0.1265 µM): 0.423
- relative viability (NCI-H460; first compound 0.4 µM): 0.255
- relative viability (NCI-H460; first compound 1.265 µM): 0.0498
- relative viability (NCI-H460; first compound 4 µM): 0.064
- relative viability (CAL-12T; first compound 0.04 µM): 0.274
- relative viability (CAL-12T; first compound 0.1265 µM): 0.359
- relative viability (CAL-12T; first compound 0.4 µM): 0.289
- relative viability (CAL-12T; first compound 1.265 µM): 0.199
- relative viability (CAL-12T; first compound 4 µM): 0.243
- relative viability (NCI-H1355; first compound 0.04 µM): 0.601
- relative viability (NCI-H1355; first compound 0.1265 µM): 0.545
- relative viability (NCI-H1355; first compound 0.4 µM): 0.493
- relative viability (NCI-H1355; first compound 1.265 µM): 0.454
- relative viability (NCI-H1355; first compound 4 µM): 0.342
- relative viability (NCI-H441; first compound 0.04 µM): 0.696
- relative viability (NCI-H441; first compound 0.1265 µM): 0.632
- relative viability (NCI-H441; first compound 0.4 µM): 0.638
- relative viability (NCI-H441; first compound 1.265 µM): 0.422
- relative viability (NCI-H441; first compound 4 µM): 0.332
- relative viability (NCI-H358; first compound 0.04 µM): 0.107
- relative viability (NCI-H358; first compound 0.1265 µM): 0.0991
- relative viability (NCI-H358; first compound 0.4 µM): 0.0776
- relative viability (NCI-H358; first compound 1.265 µM): 0.0713
- relative viability (NCI-H358; first compound 4 µM): 0.0702
- relative viability (NCI-H1975; first compound 0.04 µM): 0.815
- relative viability (NCI-H1975; first compound 0.1265 µM): 0.715
- relative viability (NCI-H1975; first compound 0.4 µM): 0.565
- relative viability (NCI-H1975; first compound 1.265 µM): 0.251
- relative viability (NCI-H1975; first compound 4 µM): 0.143
- relative viability (BEN; first compound 0.04 µM): 0.554
- relative viability (BEN; first compound 0.1265 µM): 0.482
